# Key:
# Assay type in all cases: cell-based
# [1] = test system: hepatocellular carcinoma cell HepG2; experiment: MTT in vitro cell growth inhibition, hepatocellular carcinoma cell HepG2 (48 h); conditions: Homo sapiens, HepG2 cells
# Method: (§1) Human breast cancer cell MCF-7, hepatocellular carcinoma cell HepG2, lung adenocarcinoma cell A549 were purchased from Shanghai Cell Bank of Chinese Academy of Sciences. Human leukemia cells HL-60, human leukemia cells adriamycin-resistant strain HL-60/ADR, and human glioblastoma cells U-87MG were purchased from Shanghai Chuanqiu Biotechnology Co. Human cervical cancer HeLa was purchased from Shanghai Jikai Gene Chemistry Technology Co. Human colon cancer cells HCT-116, human brain microvascular endothelial cells hCMEC/D3 were preserved by Tianjin Suntech Pharmaceutical Technology Co. Human colon cancer cells Sw620 and human colon cancer cells LoVo were provided by Tianjin Medical University Hospital.
# (§2) Human breast cancer cell MCF-7, hepatocellular carcinoma cell HepG2, lung adenocarcinoma cell A549, human leukemia cell HL-60, human leukemia cell adriamycin-resistant strain HL-60/ADR, human glioblastoma cell U-87MG, human cervical carcinoma cell HeLa, human colon carcinoma cell HCT-116, human colon carcinoma cell Sw620, human colon carcinoma cell LoVo, Human brain microvascular endothelial cells HCMEC/D3 were cultured using DMEM medium. The medium was supplemented with 10% fetal bovine serum and 1% double antibody (penicillin+streptomycin), and the culture environment was an incubator filled with 5% CO2 at a temperature of 37 °C, when the cells basically grew all over the bottom of the dish (about 80%-90%), passaging culture was performed.
# (§3) Preparation of MTT solution: Weigh 50 mg of MTT, dissolve it in 10 mL of phosphate buffer solution (PBS), dispense it, and store it at 4 °C away from light, it will be effective within two weeks.
# (§4) Take the series of compounds diluted with medium to form 1 mg/ml master batch, before use, precise aspiration of the appropriate amount of sample master batch diluted with medium to form working solutions with different concentration gradients, such as 100 μg/ml, 10 μg/ml, 1 μg/ml, 0.1 μg/ml, 0.01 μg/ml, 0.001 μg/ml and so on.
# (§5) 1. Take log phase cells, digest, centrifuge and resuspend. The cell density was adjusted to 1×10^5 cells/mL by adding culture medium, and 100 μl of prepared cell suspension per well was added and inoculated into 96-well cell culture plates, after which they were placed in a cell culture incubator for incubation.
# (§6) 2. After 24 h of culture, the test group was added 2 μl of the series of compounds with concentrations of 100 μg/ml, 10 μg/ml, 1 μg/ml, 0.1 μg/ml, 0.01 μg/ml, 0.001 μg/ml, and 4 replicate wells were set up for each concentration, as well as a positive control group (etoposide) and a blank control group.
# (§7) 3. The 96-well plates were incubated separately for 48 h and then 20 μl of MTT solution (concentration of 5 mg/ml) was added to each well and incubation was continued for 4 hours in the incubator.
# (§8) 4. Remove the 96-well plate from the incubator, carefully aspirate the medium in the wells with a micropipette, and add 150 μl of dimethyl sulfoxide to each well, shake to dissolve the crystals completely, and then measure the absorbance OD value using an enzyme counter at 492 nm.
# (§9) 5. The test was repeated three times consecutively and the cell inhibition rate was calculated according to the following formula: cell inhibition rate (%)=[1−OD value of the test group/OD of the blank control group)]×100%, and the IC50 value of the half inhibitory concentration of the samples for inhibiting cell growth was calculated.
# [2] = test system: human breast cancer cell MCF-7; experiment: MTT in vitro cell growth inhibition, human breast cancer cell MCF-7 (48 h); conditions: MCF7, MCF-7 cells
# Method: as §1, §2, §3, §4, §5, §6, §7, §8, §9
# [3] = test system: lung adenocarcinoma cell A549; experiment: MTT in vitro cell growth inhibition, lung adenocarcinoma cell A549 (48 h); conditions: Homo sapiens, A549 cells
# Method: as §1, §2, §3, §4, §5, §6, §7, §8, §9
# [4] = test system: human colon cancer cells Sw620; experiment: MTT in vitro cell growth inhibition, human colon cancer cells Sw620 (48 h); conditions: SW-620
# Method: as §1, §2
# (§10) Preparation of MTT solution: Weigh 50 mg of MTT, dissolve it in 10 mL of phosphate buffer solution (PBS), dispense it, and store it at 4 °C away from light, it will be effective within two weeks. […]
# (§11) 4. Remove the 96-well plate from the incubator, carefully aspirate the medium in the wells with a micropipette, and add 150 μl of dimethyl sulfoxide to each well, shake to dissolve the crystals completely, and then measure the absorbance OD value using an enzyme counter at 492 nm. […]
# [5] = test system: human colon cancer cells LoVo; experiment: MTT in vitro cell growth inhibition, human colon cancer cells LoVo (48 h)
# Method: as §1, §2, §10, §11
# [6] = test system: human leukemia cells HL-60; experiment: MTT in vitro cell growth inhibition, human leukemia cells HL-60 (48 h); conditions: HL-60 cells
# Method: as §1, §2, §3, §4, §5, §6, §7, §8, §9
# [7] = test system: human cervical cancer HeLa; experiment: MTT in vitro cell growth inhibition, human cervical cancer HeLa (48 h); conditions: HeLa cells
# Method: as §1, §2, §10, §11
# [8] = test system: human colon cancer cells HCT-116; experiment: MTT in vitro cell growth inhibition, human colon cancer cells HCT-116 (48 h); conditions: HCT116 cells
# Method: as §1, §2, §3, §4, §5, §6, §7, §8, §9
# [9] = test system: human brain microvascular endothelial cells hCMEC/D3; experiment: MTT in vitro cell growth inhibition, human brain microvascular endothelial cells hCMEC/D3 (48 h)
# Method: as §1, §2, §3, §4, §5
# 2. […]
# as §11
SMILES,IC50 [1],IC50 [2],IC50 [3],IC50 [6],also measured
COC(=O)C[C@](O)(CCc1cccc(NC(=O)Nc2ccc(C)cc2)c1)C(=O)O[C@@H]1C(OC)=C[C@]23CCCN2CCc2cc4c(cc2[C@H]13)OCO4 [Compound I-1-1],25 nM,4.3 nM,–,–,–
COC(=O)C[C@](O)(CCc1cccc(NC(=O)NC2CCCC2)c1)C(=O)O[C@@H]1C(OC)=C[C@]23CCCN2CCc2cc4c(cc2C13)OCO4 (stereo partly drawn) [Compound I-1-2],14 nM,0.5 nM,70 nM,7.7 nM,IC50 [4]: 12 nM; IC50 [5]: 57 nM
COC(=O)C[C@](O)(CCc1cccc(NC(=O)NC2CCCCC2)c1)C(=O)O[C@@H]1C(OC)=C[C@]23CCCN2CCc2cc4c(cc2C13)OCO4 (stereo partly drawn) [Compound I-1-9],–,–,–,8.9 nM,–
COC(=O)C[C@](O)(CCc1cccc(NC(=O)Nc2ccc(OC)cc2)c1)C(=O)O[C@@H]1C(OC)=C[C@]23CCCN2CCc2cc4c(cc2C13)OCO4 (stereo partly drawn) [Compound I-1-22],–,–,–,13.5 nM,–
COC(=O)C[C@@](O)(CCc1cccc([N+](=O)[O-])c1)C(=O)O[C@@H]1C(OC)=C[C@]23CCCN2CCc2cc4c(cc2C13)OCO4 (stereo partly drawn) [Compound I-2-2],29 nM,14 nM,–,–,–
COC(=O)C[C@](O)(CCc1cccc(N)c1)C(=O)O[C@@H]1C(OC)=C[C@]23CCCN2CCc2cc4c(cc2[C@H]13)OCO4 [Compound I-2-5],40 nM,11 nM,–,3.1 nM,–
COC(=O)C[C@](O)(CCc1cccc(NC(C)=O)c1)C(=O)O[C@@H]1C(OC)=C[C@]23CCCN2CCc2cc4c(cc2[C@H]13)OCO4 [Compound I-2-9],48 nM,34 nM,–,3.3 nM,–
COC(=O)C[C@](O)(CCCC(F)(F)F)C(=O)O[C@@H]1C(OC)=C[C@]23CCCN2CCc2cc4c(cc2[C@H]13)OCO4 [Compound I-2-29],–,–,61 nM,–,IC50 [7]: 25 nM
COC(=O)C[C@](O)(CCC(F)(F)C(F)(F)F)C(=O)O[C@@H]1C(OC)=C[C@]23CCCN2CCc2cc4c(cc2[C@H]13)OCO4 [Compound I-2-30],–,–,21 nM,–,IC50 [7]: 28 nM
COC(=O)C[C@](O)(CCc1cccc(F)c1F)C(=O)O[C@@H]1C(OC)=C[C@]23CCCN2CCc2cc4c(cc2[C@H]13)OCO4 [Compound I-2-35],23 nM,110 nM,60 nM,–,–
COC(=O)C[C@](O)(CCc1ccccc1C(F)(F)F)C(=O)O[C@@H]1C(OC)=C[C@]23CCCN2CCc2cc4c(cc2[C@H]13)OCO4 [Compound I-2-38],75 nM,220 nM,290 nM,–,–
COC(=O)C[C@](O)(CCc1ccc(SC)cc1)C(=O)O[C@@H]1C(OC)=C[C@]23CCCN2CCc2cc4c(cc2[C@H]13)OCO4 [Compound I-2-41],10 nM,60 nM,150 nM,–,–
COC(=O)C[C@](O)(CCc1cccc2ccccc12)C(=O)O[C@@H]1C(OC)=C[C@]23CCCN2CCc2cc4c(cc2[C@H]13)OCO4 [Compound I-2-43],15 nM,–,–,–,–
COC(=O)C[C@](O)(CCc1ccc2ccccc2c1)C(=O)O[C@@H]1C(OC)=C[C@]23CCCN2CCc2cc4c(cc2[C@H]13)OCO4 [Compound I-2-44],95 nM,65 nM,20 nM,8.7 nM,–
COC(=O)C[C@](O)(CCc1ccc(OC)cc1)C(=O)O[C@@H]1C(OC)=C[C@]23CCCN2CCc2cc4c(cc2[C@H]13)OCO4 [Compound I-2-45],17 nM,90 nM,210 nM,–,–
COC1=C[C@]23CCCN2CCc2cc4c(cc2[C@@H]3[C@@H]1OC(=O)C(O)(CCC(C)C)CC(=O)SC)OCO4 (stereo partly drawn) [Compound I-2-52],–,–,–,–,IC50 [8]: 46 nM
COC1=C[C@]23CCCN2CCc2cc4c(cc2[C@@H]3[C@@H]1OC(=O)C(O)(C/C=N\OC(C)=O)CCC(C)C)OCO4 (stereo partly drawn) [Compound I-3-13],–,–,45 nM,18 nM,IC50 [8]: 16 nM
CCCCC(O)(C/C=N\OC(C)=O)C(=O)O[C@@H]1C(OC)=C[C@]23CCCN2CCc2cc4c(cc2[C@H]13)OCO4 (stereo partly drawn) [Compound I-3-14],–,–,44 nM,–,IC50 [8]: 69 nM
COC1=C[C@]23CCCN2CCc2cc4c(cc2[C@@H]3[C@@H]1OC(=O)C(O)(C/C=N/OC(C)=O)CCC=C(C)C)OCO4 (stereo partly drawn) [Compound I-3-15],–,–,83 nM,–,–
C=CC(=O)O/N=C/CC(O)(CCC(C)C)C(=O)O[C@@H]1C(OC)=C[C@]23CCCN2CCc2cc4c(cc2[C@H]13)OCO4 (stereo partly drawn) [Compound I-3-22],–,–,39 nM,–,IC50 [8]: 48 nM
COC1=C[C@]23CCCN2CCc2cc4c(cc2[C@@H]3[C@@H]1OC(=O)C(O)(C/C=N\OC(=O)C(C)C)CCC(C)C)OCO4 (stereo partly drawn) [Compound I-3-23],–,–,21 nM,34 nM,IC50 [8]: 71 nM
CCCCC(O)(C/C=N\OC(=O)C(C)C)C(=O)O[C@@H]1C(OC)=C[C@]23CCCN2CCc2cc4c(cc2[C@H]13)OCO4 (stereo partly drawn) [Compound I-3-24],–,–,36 nM,67 nM,IC50 [8]: 24 nM; IC50 [9]: 245 nM
COC1=C[C@]23CCCN2CCc2cc4c(cc2[C@@H]3[C@@H]1OC(=O)C(O)(C/C=N\OC(=O)C(C)C)CCC=C(C)C)OCO4 (stereo partly drawn) [Compound I-3-25],–,–,92 nM,–,–
COC1=C[C@]23CCCN2CCc2cc4c(cc2[C@@H]3[C@@H]1OC(=O)C(O)(C/C=N/OC(=O)[C@H](C)c1ccc2cc(OC)ccc2c1)CCC(C)C)OCO4 (stereo partly drawn) [Compound I-3-31],–,–,21 nM,20 nM,IC50 [4]: 3.4 nM; IC50 [5]: 45 nM; IC50 [9]: 24 nM
COC1=C[C@]23CCCN2CCc2cc4c(cc2[C@@H]3[C@@H]1OC(=O)C(O)(C/C=N/OC(=O)[C@H](C)c1ccc2cc(OC)ccc2c1)CCc1ccc2c(c1)CCO2)OCO4 (stereo partly drawn) [Compound I-3-34],–,–,283 nM,–,IC50 [8]: 26 nM
COC1=C[C@]23CCCN2CCc2cc4c(cc2[C@@H]3[C@@H]1OC(=O)C(O)(C/C=N/OC(=O)NC1CCCC1)CCC(C)C)OCO4 (stereo partly drawn) [Compound I-3-46],–,–,53 nM,42 nM,IC50 [9]: 60 nM
"COC(=O)C[C@](O)(CCCC(C)(C)O)C(=O)O[C@@H]1C(OC)=C[C@]23CCCN2CCc2cc4c(cc2[C@H]13)OCO4 [HHT, homoharringtonine, reference compound]",22 nM,40 nM,190 nM,40 nM,IC50 [4]: 35 nM; IC50 [8]: 26 nM; IC50 [5]: 335 nM; IC50 [7]: 34 nM; IC50 [9]: 171 nM

# Reference: patent publication US20260365664A1, “HARRINGTONINE DERIVATIVE, PHARMACEUTICAL COMPOSITION THEREOF, PREPARATION METHOD THEREFOR, AND USE THEREOF” (NANKAI UNIVERSITY, priority 2022, published 2026)
